Laboratory results as given in patent US20210220384A1, “ORAL ADMINISTRABLE PHARMACEUTICAL COMPOSITION” (TAIHO PHARMACEUTICAL CO., LTD., priority 2012, published 2021).

Assay: Critical relative humidity of additives by moisture sorption analyzer (Test Example 1)
Format: physicochemical
Details: of the additive (excipient) alone, moisture sorption analyzer DVS-1
Procedure: The orally administrable pharmaceutical composition of the present invention, to which sugars having a critical relative humidity of 85% or more at 25° C. as an excipient is added, suppresses increases in FTD and TPI related substances even stored under high-humidity conditions. A “critical relative humidity” herein means a well-known indicator representing the hygroscopicity, and refers to a relative humidity when a rapid increase in the amount of moisture absorbed in a sample is observed in the case where the relative humidity is increased. The critical relative humidity can be checked by measuring the change in the weight of a sample at 25° C. and a relative humidity of from 10 to 95% using, for example, a moisture sorption analyzer (DVS-1, Surface Measurement Systems Ltd.). “A critical relative humidity at 25° C. is 85% or more” means that moisture is not substantially absorbed when the relative humidity at 25° C. is less than 85%. Also, “no critical relative humidity” means that moisture is absorbed at a low humidity depending on the humidity, and a rapid increase in the amount of moisture absorbed associated with an increase in the relative humidity is not observed.
The critical relative humidity of additives at 25° C. shown in Tables 1 and 2 was measured using a moisture sorption analyzer (DVS-1, Surface Measurement Systems Ltd.).
In the case of `OC[C@@H](O)[C@H](O)[C@@H](O)CO` [Xylitol, xylitol], the “Critical relative humidity (%, at 25° C.)” value was 75-85%.
For `OC[C@@H](O)[C@@H](O)[C@H](O)[C@H](O)CO` [D-mannitol], the “Critical relative humidity (%, at 25° C.)” value was 95 or more %.
In the case of `OC[C@H]1O[C@@](CO)(O[C@H]2O[C@H](CO)[C@@H](O)[C@H](O)[C@H]2O)[C@@H](O)[C@@H]1O` [Sucrose, sucrose], the “Critical relative humidity (%, at 25° C.)” value was 85 or more %.
With `O.OC[C@H]1O[C@@H](O[C@H]2[C@H](O)[C@@H](O)C(O)O[C@@H]2CO)[C@H](O)[C@@H](O)[C@H]1O` (some centres unmarked) [Lactose hydrate, lactose hydrate] the “Critical relative humidity (%, at 25° C.)” value was 95 or more %.
In the case of `OC[C@@H](O)[C@@H](O)[C@H](O)[C@@H](O)CO` [D-sorbitol], the “Critical relative humidity (%, at 25° C.)” value was 50-60%.
